Experimental data taken from PubChem BioAssay AID812 (SRMLSC, 2007).
Activity calls are given as the source filed them. No rule for the calls is given here.

Test system: Saccharomyces cerevisiae lifespan extension, no nicotinamide
Test: yeast lifespan extension without nicotinamide, confirmation, yeast lifespan extension project, S. cerevisiae (AID 812);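 also: growth read as optical density after 42 hours of incubation at 30C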

## CCCC(=Nc1ccccc1OC)C1=C(O)CC(c2ccccc2)CC1=O (stereo not given)
  EC50: > 40 µM (inactive)

## Cc1c(O)c(S(=O)c2ccccc2)c(=O)n(-c2ccccc2)c1-c1ccccc1 (stereo not given)
  EC50: > 40 µM (inactive)

## CCOC(=O)CN1C(=O)N[C@H](c2ccc(Br)cc2)C(C(C)=O)=C1C
  EC50: > 40 µM (inactive)

## O=C(NC(=S)NNC(=O)c1ccccc1O)c1ccco1
  EC50: > 40 µM (inactive)

## Cc1ccc(NC(=O)CN2CCN(CCN=CC3=C(O)CC(c4ccccc4)CC3=O)CC2)cc1 (stereo not given)
  EC50: > 40 µM (inactive)

## CC1CCCN(c2nc3ccccc3nc2C(C#N)C(=O)OC2CCCCC2)C1 (stereo not given)
  EC50: > 40 µM (inactive)

## O=c1c(-c2ccc(Cl)cc2)[n+]([O-])c2ccccc2n1OCc1ccccn1
  EC50: > 40 µM (inactive)

## COC(=O)C1=C(N)OC2=C(C(=O)CC(C)(C)C2)C1c1cccs1 (stereo not given)
  EC50: > 40 µM (inactive)

## O=C(Nc1nccs1)c1ccc2c(=O)n3c(nc2c1)CCCCC3
  EC50: > 40 µM (inactive)

## O=C(O)c1c[nH]c(=S)n1-c1ccc(F)cc1
  EC50: > 40 µM (inactive)

## CCCn1c(SCC(=O)c2ccc3c(c2)NC(=O)CO3)nc2ccccc21
  EC50: > 40 µM (inactive)

## COc1ccc(CN2CCN(C(=O)COc3cccc(C)c3)CC2)c(OC)c1
  EC50: > 40 µM (inactive)

## Cc1nonc1NC(=O)CSc1nc(C2CCCCC2)nc2ccccc12
  EC50: > 40 µM (inactive)

## O=c1[nH]c2ccccc2nc1C(Cl)c1ccccc1 (stereo not given)
  EC50: > 40 µM (inactive)

## C/C(=N\NC(=O)c1cccnc1)c1c(O)cc(C)oc1=O
  EC50: > 40 µM (inactive)

## C/C(=N\NC(=O)c1ccccc1O)c1c(O)cc(C)oc1=O
  EC50: > 40 µM (inactive)

## CC(=O)[C@H]1[C@H](c2cccc(Cl)c2)C(C#N)(C#N)[C@@H]2c3ccccc3C=CN21
  EC50: > 40 µM (inactive)

## Cc1cc(C)c(S(=O)(=O)c2ccccc2)c(OC(=O)c2ccc(Cl)cc2Cl)n1
  EC50: > 40 µM (inactive)

## O=C1ON=C(c2ccccc2)/C1=C/c1ccc(-c2ccccc2[N+](=O)[O-])o1
  EC50: > 40 µM (inactive)

## Cc1[nH]nc2nc3c(c(OC(=O)c4ccccc4)c12)c(=O)n(C)c(=O)n3C
  EC50: > 40 µM (inactive)

## CCCCC(=Nc1ccc(N)cc1)C1=C(O)C(C(=O)OC)C(C)(C)CC1=O (stereo not given)
  EC50: > 40 µM (inactive)

## CC1CCCCC1NC(=O)/C(C#N)=C/c1ccccc1F (stereo not given)
  EC50: > 40 µM (inactive)

## CCCc1[nH]nc2c1C(c1ccc(Br)s1)C(C#N)=C(N)O2 (stereo not given)
  EC50: > 40 µM (inactive)

## COc1ccc(NC(=S)N2CCN(CCN=CC3=C(O)CC(c4ccccc4)CC3=O)CC2)cc1 (stereo not given)
  EC50: > 40 µM (inactive)

## CN1C(=O)C(Cl)(Cl)C(=O)c2ccccc21
  EC50: > 40 µM (inactive)

## CCn1ccc(C(=O)Nc2ccc(S(=O)(=O)Nc3ccccc3OC)cc2)n1
  EC50: > 40 µM (inactive)

## COc1ccc(/C=N/NC(=O)c2csc(-n3nc(C)cc3C(F)(F)F)n2)cc1
  EC50: > 40 µM (inactive)

## O=S(=O)(Nc1nc2ccccc2nc1Cl)c1ccc2ccccc2c1
  EC50: > 40 µM (inactive)

## O=c1[nH]c2ccccc2nc1Cc1ccccc1
  EC50: > 40 µM (inactive)

## CS(=O)(=O)c1nc(-c2ccccc2)cc(C(F)(F)F)n1
  EC50: > 40 µM (inactive)

## CCc1nnc(N2C(=O)c3ccc(Oc4ccc([N+](=O)[O-])cc4)cc3C2=O)s1
  EC50: > 40 µM (inactive)

## CCOc1ccc(C(=O)C(CN2CCOCC2)c2ccccc2)cc1 (stereo not given)
  EC50: > 40 µM (inactive)

## O=C1C(=C(O)c2ccccc2)C(=O)c2ccccc21
  EC50: > 40 µM (inactive)

## COC(=O)C1=C(C(=O)OC)C(c2cc(Br)ccc2O)c2sc(=O)[nH]c2S1 (stereo not given)
  EC50: > 40 µM (inactive)

## CS(=O)(=O)c1nc(-c2cccs2)cc(C(F)(F)F)n1
  EC50: > 40 µM (inactive)
